Measured values from ChEMBL document CHEMBL3612033, “Synthesis of 3,4-diaminobenzoyl derivatives as factor Xa inhibitors” (Eur J Med Chem, 2015).

Experiments:
[1] = biological target: T1, Coagulation factor X (Oryctolagus cuniculus) (UniProt O19045); test: Inhibition of F10a in rabbit plasma assessed as ratio of compound prothrombin time to vehicle control prothrombin time at 100 nM after 2 mins by automatic coagulation analyser
T1 sequence (whole entry): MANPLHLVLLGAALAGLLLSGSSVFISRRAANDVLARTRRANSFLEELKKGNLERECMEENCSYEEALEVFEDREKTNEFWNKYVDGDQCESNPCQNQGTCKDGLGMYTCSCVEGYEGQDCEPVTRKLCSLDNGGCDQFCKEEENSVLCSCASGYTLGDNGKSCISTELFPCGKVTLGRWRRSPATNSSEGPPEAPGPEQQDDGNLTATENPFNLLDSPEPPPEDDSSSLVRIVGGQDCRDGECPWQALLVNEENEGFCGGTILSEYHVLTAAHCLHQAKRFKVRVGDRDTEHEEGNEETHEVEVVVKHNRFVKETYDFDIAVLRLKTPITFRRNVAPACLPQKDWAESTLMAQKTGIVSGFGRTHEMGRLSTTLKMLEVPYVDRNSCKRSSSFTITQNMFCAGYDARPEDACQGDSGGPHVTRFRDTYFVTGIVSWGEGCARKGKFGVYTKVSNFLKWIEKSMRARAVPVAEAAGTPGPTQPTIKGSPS

[2] = biological target: Coagulation factor X (Homo sapiens, UniProt P00742); test: Inhibition of human F10a using S-2765 as substrate preincubated for 10 mins followed by substrate addition by microplate reader analysis
Sequence of Coagulation factor X (P00742 41-179 limits assumed): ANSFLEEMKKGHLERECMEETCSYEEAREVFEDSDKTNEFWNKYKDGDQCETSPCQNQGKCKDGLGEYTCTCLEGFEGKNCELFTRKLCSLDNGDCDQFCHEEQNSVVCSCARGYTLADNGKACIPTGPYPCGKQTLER
Sequence of Coagulation factor X (P00742 235-488 limits assumed): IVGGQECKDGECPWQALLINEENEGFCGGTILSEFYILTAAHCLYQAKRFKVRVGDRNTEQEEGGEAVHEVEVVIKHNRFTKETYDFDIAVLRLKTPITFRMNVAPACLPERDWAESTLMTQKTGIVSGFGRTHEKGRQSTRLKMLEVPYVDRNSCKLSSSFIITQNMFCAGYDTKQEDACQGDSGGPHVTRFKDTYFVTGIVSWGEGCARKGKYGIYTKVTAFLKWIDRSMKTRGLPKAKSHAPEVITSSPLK

[3] = biological target: Prothrombin (Bos taurus, UniProt P00735); test: Inhibition of bovine plasma thrombin using S-2238 as substrate
[4] = biological target: Trypsin (Homo sapiens, UniProt P07477+P07478+P35030); test: Inhibition of trypsin (unknown origin) using S-2222 as substrate; format: protein assay

Ratio [1] | Structure (SMILES) | also measured
2.1 | COc1cc(C(=O)Nc2cc(C(N)=O)ccc2NC(=O)c2ccn(-c3ccccc3)c(=O)c2)cc(OC)c1OC | 
1.15 | COc1cc(C(=O)Nc2cc(C(=O)O)ccc2NC(=O)c2ccc(-n3ccccc3=O)cc2)cc(OC)c1OC | 
 | NC(=O)c1ccc(NC(=O)c2ccc(-n3ccccc3=O)cc2)c(NC(=O)c2ccc(Br)cc2)c1 | IC50 [2]: 25.9 nM
1.27 | NC(=O)c1ccc(NC(=O)c2ccc(-n3ccccc3=O)cc2)c(NC(=O)c2ccc(Cl)nc2)c1 | 
1.94 | COc1ccc(C(=O)Nc2cc(C(N)=O)ccc2NC(=O)c2ccc(-n3ccccc3=O)cc2)cc1OC | IC50 [2]: 17.1 nM; IC50 [3]: > 100000 nM; IC50 [4]: > 100000 nM
1.27 | NC(=O)c1ccc(NC(=O)c2ccc(-n3ccccc3=O)cc2)c(NC(=O)c2ccc(F)cc2)c1 | 
1.33 | NC(=O)c1ccc(NC(=O)c2ccc(-n3ccccc3=O)cc2)c(NC(=O)c2ccc(Cl)s2)c1 | 
1.72 | CC(=O)Nc1ccc(C(=O)Nc2cc(C(N)=O)ccc2NC(=O)c2ccc(-n3ccccc3=O)cc2)cc1 | IC50 [2]: 15.6 nM
1.16 | COc1cc(C(=O)Nc2cc(C(N)=O)ccc2NC(=O)c2ccc(N3CCCCC3=O)cc2)cc(OC)c1OC | 
1.88 | NC(=O)c1ccc(NC(=O)c2ccc(-n3ccccc3=O)cc2)c(NC(=O)c2ccc(Cl)cc2)c1 | 
2.06 | COc1cc(C(=O)Nc2cc(C(N)=O)ccc2NC(=O)c2ccc(-n3ccccc3=O)cc2)cc(OC)c1OC | IC50 [2]: 28.6 nM
 | NC(=O)c1ccc(NC(=O)c2ccc(-n3ccccc3=O)cc2)c(NC(=O)c2ccc(Cl)c(Cl)c2)c1 | IC50 [2]: 6.5 nM
1.07 | COc1cc(C(=O)Nc2ccc(C(N)=O)cc2NC(=O)c2ccc(-n3ccccc3=O)cc2)cc(OC)c1OC | 
1.27 | COc1cc(C(=O)Nc2cc(C(N)=O)ccc2NC(=O)c2ccc(N3CCCC3=O)cc2)cc(OC)c1OC | 
1.21 | CCOC(=O)c1ccc(NC(=O)c2ccc(-n3ccccc3=O)cc2)c(NC(=O)c2cc(OC)c(OC)c(OC)c2)c1 | 
1.66 | NC(=O)c1ccc(NC(=O)c2ccc(-n3ccccc3=O)cc2)c(NC(=O)c2ccc3ncoc3c2)c1 | 
1.87 | COc1ccc(C(=O)Nc2cc(C(N)=O)ccc2NC(=O)c2ccc(-n3ccccc3=O)cc2)cc1 | 
1.54 | NC(=O)c1ccc(NC(=O)c2ccc(-n3ccccc3=O)cc2)c(NC(=O)c2ccc(NC=O)cc2)c1 | 
